Source: the NIST ThermoML archive (doi:10.1016/j.fluid.2012.06.031)
± gives the expanded uncertainty stated by the source.

How the values were obtained:
[1] = 298.15 K; 101.33 kPa; Liquid; Pycnometric method
[2] = refractive index (Na D-line) (dimensionless); settings: 298.15 K; 101.33 kPa; Liquid; Standard Abbe refractometry
[3] = refractive index (Na D-line) (dimensionless); xn = mol fraction of the nth substance listed; settings: 298.15 K, 101 kPa, Liquid, Standard Abbe refractometry
[4] = xn = mol fraction of the nth substance listed; settings: 298.15 K, 101 kPa, Liquid, Pycnometric method
[5] = excess molar enthalpy (molar enthalpy of mixing); xn = mol fraction of the nth substance listed; settings: 298.15 K, 101 kPa, Liquid, solution calorimetry

`CC(C)CC(C)(C)C` [2,2,4-trimethylpentane] showed a mass density [1] of 687.9 ± 0.56 kg/m3 and a refractive index [2] of 1.3889 ± 0.0007.
`CC(C)CC(C)(C)C` [2,2,4-trimethylpentane] + CCCCO gave a refractive index ([3]; x2 = 0.0501) of 1.38897 ± 0.00046, a refractive index ([3]; x2 = 0.1001) of 1.38909 ± 0.00045 and a refractive index ([3]; x2 = 0.1501) of 1.38925 ± 0.00045. It also gave a refractive index ([3]; x2 = 0.2) of 1.38946 ± 0.00045, a refractive index ([3]; x2 = 0.3001) of 1.38999 ± 0.00044 and a refractive index ([3]; x2 = 0.3999) of 1.39067 ± 0.00044. The refractive index ([3]; x2 = 0.5) was 1.39149 ± 0.00043, the refractive index ([3]; x2 = 0.5999) was 1.39244 ± 0.00043 and the refractive index ([3]; x2 = 0.6999) was 1.3935 ± 0.00042. The refractive index ([3]; x2 = 0.8) was 1.39466 ± 0.00042, the refractive index ([3]; x2 = 0.85) was 1.39527 ± 0.00042 and the refractive index ([3]; x2 = 0.9) was 1.3959 ± 0.00042. It also gave a refractive index ([3]; x2 = 0.95) of 1.39654 ± 0.00042, a mass density ([4]; x2 = 0.0501) of 690.95 ± 0.56 kg/m3 and a mass density ([4]; x2 = 0.1001) of 694.28 ± 0.56 kg/m3. It also gave a mass density ([4]; x2 = 0.1501) of 697.81 ± 0.56 kg/m3, a mass density ([4]; x2 = 0.2) of 701.56 ± 0.56 kg/m3 and a mass density ([4]; x2 = 0.3001) of 709.77 ± 0.57 kg/m3. The mass density ([4]; x2 = 0.3999) was 718.98 ± 0.57 kg/m3, the mass density ([4]; x2 = 0.5) was 729.4 ± 0.57 kg/m3 and the mass density ([4]; x2 = 0.5999) was 741.16 ± 0.58 kg/m3. For the same compound, the mass density ([4]; x2 = 0.6999) was 754.51 ± 0.59 kg/m3, the mass density ([4]; x2 = 0.8) was 769.68 ± 0.59 kg/m3 and the mass density ([4]; x2 = 0.85) was 778.03 ± 0.6 kg/m3. The mass density ([4]; x2 = 0.9) was 786.94 ± 0.6 kg/m3, the mass density ([4]; x2 = 0.95) was 796.46 ± 0.61 kg/m3 and the excess molar enthalpy ([5]; x2 = 0.05) was 0.396 ± 0.0041 kJ/mol. The excess molar enthalpy ([5]; x2 = 0.1) was 0.5023 ± 0.0048 kJ/mol, the excess molar enthalpy ([5]; x2 = 0.1502) was 0.5697 ± 0.0052 kJ/mol and the excess molar enthalpy ([5]; x2 = 0.2) was 0.5874 ± 0.0053 kJ/mol. For the same compound, the excess molar enthalpy ([5]; x2 = 0.2995) was 0.6228 ± 0.0056 kJ/mol, the excess molar enthalpy ([5]; x2 = 0.4) was 0.6287 ± 0.0056 kJ/mol and the excess molar enthalpy ([5]; x2 = 0.5001) was 0.5938 ± 0.0054 kJ/mol. It also gave an excess molar enthalpy ([5]; x2 = 0.6002) of 0.5157 ± 0.0048 kJ/mol, an excess molar enthalpy ([5]; x2 = 0.7) of 0.405 ± 0.0041 kJ/mol and an excess molar enthalpy ([5]; x2 = 0.8) of 0.287 ± 0.0035 kJ/mol. The excess molar enthalpy ([5]; x2 = 0.8499) was 0.223 ± 0.0031 kJ/mol, the excess molar enthalpy ([5]; x2 = 0.9) was 0.15 ± 0.0028 kJ/mol and the excess molar enthalpy ([5]; x2 = 0.9499) was 0.0788 ± 0.0025 kJ/mol.
Work on `CC(C)CC(C)(C)C` [2,2,4-trimethylpentane] + CCCO yielded a refractive index ([3]; x2 = 0.0502) of 1.3885 ± 0.00045, a refractive index ([3]; x2 = 0.1002) of 1.38816 ± 0.00045 and a refractive index ([3]; x2 = 0.1504) of 1.38785 ± 0.00045. The refractive index ([3]; x2 = 0.1999) was 1.38759 ± 0.00044, the refractive index ([3]; x2 = 0.3) was 1.38712 ± 0.00044 and the refractive index ([3]; x2 = 0.3999) was 1.38669 ± 0.00043. For the same compound, the refractive index ([3]; x2 = 0.5) was 1.38627 ± 0.00043, the refractive index ([3]; x2 = 0.6001) was 1.3858 ± 0.00042 and the refractive index ([3]; x2 = 0.7) was 1.38526 ± 0.00042. It also gave a refractive index ([3]; x2 = 0.7999) of 1.38462 ± 0.00042, a refractive index ([3]; x2 = 0.85) of 1.38426 ± 0.00042 and a refractive index ([3]; x2 = 0.9) of 1.38387 ± 0.00041. It also gave a refractive index ([3]; x2 = 0.9501) of 1.38345 ± 0.00041, a mass density ([4]; x2 = 0.0502) of 689.82 ± 0.56 kg/m3 and a mass density ([4]; x2 = 0.1002) of 692.19 ± 0.56 kg/m3. For the same compound, the mass density ([4]; x2 = 0.1504) was 694.9 ± 0.56 kg/m3, the mass density ([4]; x2 = 0.1999) was 697.87 ± 0.56 kg/m3 and the mass density ([4]; x2 = 0.3) was 704.65 ± 0.56 kg/m3. The mass density ([4]; x2 = 0.3999) was 712.46 ± 0.56 kg/m3, the mass density ([4]; x2 = 0.5) was 721.44 ± 0.56 kg/m3 and the mass density ([4]; x2 = 0.6001) was 731.85 ± 0.57 kg/m3. The mass density ([4]; x2 = 0.7) was 744.14 ± 0.58 kg/m3, the mass density ([4]; x2 = 0.7999) was 758.95 ± 0.58 kg/m3 and the mass density ([4]; x2 = 0.85) was 767.56 ± 0.59 kg/m3. The mass density ([4]; x2 = 0.9) was 777.1 ± 0.6 kg/m3, the mass density ([4]; x2 = 0.9501) was 787.71 ± 0.6 kg/m3 and the excess molar enthalpy ([5]; x2 = 0.0516) was 0.408 ± 0.0042 kJ/mol. The excess molar enthalpy ([5]; x2 = 0.1) was 0.525 ± 0.0049 kJ/mol, the excess molar enthalpy ([5]; x2 = 0.15) was 0.5598 ± 0.0051 kJ/mol and the excess molar enthalpy ([5]; x2 = 0.2001) was 0.6094 ± 0.0055 kJ/mol. It also gave an excess molar enthalpy ([5]; x2 = 0.3001) of 0.6544 ± 0.0058 kJ/mol, an excess molar enthalpy ([5]; x2 = 0.4001) of 0.6533 ± 0.0058 kJ/mol and an excess molar enthalpy ([5]; x2 = 0.5002) of 0.6025 ± 0.0054 kJ/mol. The excess molar enthalpy ([5]; x2 = 0.6001) was 0.5251 ± 0.0049 kJ/mol, the excess molar enthalpy ([5]; x2 = 0.7048) was 0.406 ± 0.0041 kJ/mol and the excess molar enthalpy ([5]; x2 = 0.8) was 0.297 ± 0.0035 kJ/mol. It also gave an excess molar enthalpy ([5]; x2 = 0.85) of 0.235 ± 0.0032 kJ/mol, an excess molar enthalpy ([5]; x2 = 0.8998) of 0.162 ± 0.0028 kJ/mol and an excess molar enthalpy ([5]; x2 = 0.9499) of 0.0854 ± 0.0025 kJ/mol.
Work on `CCCCO` [butan-1-ol] yielded a mass density [1] of 805.8 ± 0.62 kg/m3 and a refractive index [2] of 1.3974 ± 0.0007.
Work on `CCCCCO` [pentan-1-ol] yielded a mass density [1] of 810.8 ± 0.66 kg/m3 and a refractive index [2] of 1.4078 ± 0.0007.
For `CCCCCO` [pentan-1-ol] + CC(C)CC(C)(C)C, the refractive index ([3]; x1 = 0.0501) was 1.38936 ± 0.00046, the refractive index ([3]; x1 = 0.1) was 1.38993 ± 0.00046 and the refractive index ([3]; x1 = 0.1499) was 1.39059 ± 0.00046. It also gave a refractive index ([3]; x1 = 0.2017) of 1.39135 ± 0.00046, a refractive index ([3]; x1 = 0.3001) of 1.39297 ± 0.00046 and a refractive index ([3]; x1 = 0.4) of 1.39478 ± 0.00046. For the same compound, the refractive index ([3]; x1 = 0.5001) was 1.3967 ± 0.00046, the refractive index ([3]; x1 = 0.6001) was 1.3987 ± 0.00046 and the refractive index ([3]; x1 = 0.7) was 1.40077 ± 0.00046. For the same compound, the refractive index ([3]; x1 = 0.7999) was 1.40293 ± 0.00046, the refractive index ([3]; x1 = 0.85) was 1.40407 ± 0.00046 and the refractive index ([3]; x1 = 0.9) was 1.40525 ± 0.00046. It also gave a refractive index ([3]; x1 = 0.95) of 1.40649 ± 0.00046, a mass density ([4]; x1 = 0.0501) of 691.14 ± 0.56 kg/m3 and a mass density ([4]; x1 = 0.1) of 695.2 ± 0.57 kg/m3. The mass density ([4]; x1 = 0.1499) was 699.5 ± 0.57 kg/m3, the mass density ([4]; x1 = 0.2017) was 704.19 ± 0.57 kg/m3 and the mass density ([4]; x1 = 0.3001) was 713.84 ± 0.58 kg/m3. It also gave a mass density ([4]; x1 = 0.4) of 724.6 ± 0.59 kg/m3, a mass density ([4]; x1 = 0.5001) of 736.36 ± 0.6 kg/m3 and a mass density ([4]; x1 = 0.6001) of 749.12 ± 0.61 kg/m3. It also gave a mass density ([4]; x1 = 0.7) of 762.91 ± 0.62 kg/m3, a mass density ([4]; x1 = 0.7999) of 777.72 ± 0.63 kg/m3 and a mass density ([4]; x1 = 0.85) of 785.54 ± 0.64 kg/m3. For the same compound, the mass density ([4]; x1 = 0.9) was 793.63 ± 0.65 kg/m3, the mass density ([4]; x1 = 0.95) was 801.98 ± 0.65 kg/m3 and the excess molar enthalpy ([5]; x1 = 0.05) was 0.376 ± 0.004 kJ/mol. The excess molar enthalpy ([5]; x1 = 0.0998) was 0.4747 ± 0.0046 kJ/mol, the excess molar enthalpy ([5]; x1 = 0.15) was 0.5313 ± 0.0049 kJ/mol and the excess molar enthalpy ([5]; x1 = 0.1996) was 0.5546 ± 0.0051 kJ/mol. The excess molar enthalpy ([5]; x1 = 0.2997) was 0.6019 ± 0.0054 kJ/mol, the excess molar enthalpy ([5]; x1 = 0.3999) was 0.5912 ± 0.0054 kJ/mol and the excess molar enthalpy ([5]; x1 = 0.4998) was 0.5511 ± 0.0051 kJ/mol. It also gave an excess molar enthalpy ([5]; x1 = 0.5999) of 0.4561 ± 0.0045 kJ/mol, an excess molar enthalpy ([5]; x1 = 0.7) of 0.381 ± 0.004 kJ/mol and an excess molar enthalpy ([5]; x1 = 0.8) of 0.264 ± 0.0033 kJ/mol. For the same compound, the excess molar enthalpy ([5]; x1 = 0.85) was 0.197 ± 0.003 kJ/mol, the excess molar enthalpy ([5]; x1 = 0.9) was 0.134 ± 0.0027 kJ/mol and the excess molar enthalpy ([5]; x1 = 0.95) was 0.0627 ± 0.0024 kJ/mol.
`CCCO` [propan-1-ol] showed a mass density [1] of 799.6 ± 0.61 kg/m3 and a refractive index [2] of 1.3832 ± 0.0007.
